Assay results published in patent publication US4600689A, “Novel bilirubin oxidase, its production and use” (Takara Shuzo Co., Ltd., priority 1983, dated 1986).
Read-outs that look alike come from different tables or passages of the source.

Target: T1, novel bilirubin oxidase M-1 of Trachyderma tsunodae K-2593 (Trachydermella tsunodae, UniProt O61263)
T1 sequence (O61263 22-521): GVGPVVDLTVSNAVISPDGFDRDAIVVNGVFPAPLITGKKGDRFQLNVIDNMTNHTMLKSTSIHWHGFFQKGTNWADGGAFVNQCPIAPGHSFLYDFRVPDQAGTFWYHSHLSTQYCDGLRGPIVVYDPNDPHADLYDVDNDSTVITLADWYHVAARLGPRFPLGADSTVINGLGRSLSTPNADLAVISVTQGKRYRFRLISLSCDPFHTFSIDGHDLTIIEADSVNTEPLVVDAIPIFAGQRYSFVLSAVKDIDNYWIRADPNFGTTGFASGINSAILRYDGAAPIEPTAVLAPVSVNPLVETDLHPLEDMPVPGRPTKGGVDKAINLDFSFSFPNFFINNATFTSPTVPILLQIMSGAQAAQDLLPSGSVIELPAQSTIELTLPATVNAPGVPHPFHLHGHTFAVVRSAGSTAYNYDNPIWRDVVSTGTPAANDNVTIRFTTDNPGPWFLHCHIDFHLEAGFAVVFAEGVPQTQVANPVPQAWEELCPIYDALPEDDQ
Test: Effect of interfering agents on bilirubin oxidase activity (decrease in absorption at 460 nm of bilirubin)
Type: biochemical
Conditions: 10 min

[1] = pH 7, additive 1 mM, read-out: Percent interference (%)
[2] = pH 7, read-out: Percent interference (%)

SMILES	inhibition at 1000 µM [1] [%]	inhibition at 1000 µM [2] [%]
O=C(O)CN(CCN(CC(=O)O)CC(=O)O)CC(=O)O [EDTA]		59
O=C(O)CI [Iodoacetic acid]		10
N[C@@H](CCC(=O)N[C@@H](CS)C(=O)NCC(=O)O)C(=O)O [Reduced glutathione]		38
c1ccc(-c2ccccn2)nc1 [α,α'-Dipyridyl]		30

The next lines start with results.

inhibition at 1000 µM [1] [%]	SMILES	inhibition at 1000 µM [2] [%]
86	O[C@H](CS)[C@H](O)CS (racemic) [Dithiothreitol]	
31	OCCS [2-Mercaptoethanol]	
100	O=C1O[C@H]([C@@H](O)CO)C(O)=C1O [L-ascorbic acid]	
74	N[C@@H](CS)C(=O)O [L-cysteine]	
34	c1cnc2c(c1)ccc1cccnc12 [o-Phenanthroline]	
